Laboratory results from BindingDB's records for doi:10.1021/jm990947f (University of Nottingham, 2000).

Experiments:
[1] = Inhibition of IGF-I stimulated MCF-7 human breast tumor cell proliferation
[2] = Inhibition of IGF-II stimulated MCF-7 human breast tumor cell proliferation

IC50 [1]: 2.9 µM
IC50 [2]: 3.2 µM
Structure (SMILES): COc1cc(/C=C(\C#N)c2ccccn2)ccc1O
